The numbers were not newly measured in patent US9974861B2, “Peptide slow-release formulations” (CAMURUS AB, priority 2007, dated 2018), which cites them from elsewhere.

In the case of “Ala-Gly-Cys-Lys-Asn-Phe-Phe-Trp-Lys-Thr-Phe-Thr-Ser-Cys [SST-14]”, the “Affinity of SSTR1-SSTR5” value with SSTRs (SSTR1-SSTR5) (five known types of SSTRs) is given as “equally high affinity”. Besides, the Biological half-life (natural hormone) was 1-3 minutes.
For the molecule `C[C@@H](O)[C@@H]1NC(=O)[C@H](CCCCN)NC(=O)[C@@H](Cc2c[nH]c3ccccc23)NC(=O)[C@H](Cc2ccccc2)NC(=O)[C@@H](NC(=O)[C@H](N)Cc2ccccc2)CSSC[C@@H](C(=O)N[C@H](CO)[C@@H](C)O)NC1=O` [Octreotide, D-Phe-Cys-Phe-D-Trp-Lys-Thr-Cys-Thr-ol (2-7 disulphide bridge)], in the series with SSTRs (SSTR1-SSTR5), the “Selectivity for SSTR2 and SSTR5” value is given as “high selectivity”. In addition, the Terminal half-life entry (in vivo) was “around 1.7 hours”.
